These results are taken from article PMC12693416, “From Lipid Regulation to Neuroprotection: Multitarget (Benzo)thiazine Derivatives as Promising Leads” (Molecules, 2025).

For test [1], the target named is T1, acetylcholinesterase from eel (Electrophorus electricus, UniProt O42275).
T1 construct: purchased Sigma
The test can be described thus: Acetylcholinesterase (AChE) inhibition (Ellman). The note with it: read-out: AChE Inhibition (%), 300 μM compound. It is filed as biochemical. How it is done: (0.31 mM) in phosphate buffer with pH = 7. The incubation mixture is monitored for 7 min at 37 °C.
On the technique in general: Ellman's reagent forms a yellow product with free thiols.

The subject of test [2] is mouse liver microsomal lipid peroxidation. Nature of the test: Inhibition of mouse liver microsomal lipid peroxidation (LP). The note with it: for IC50: read-out: LP IC50 Value, 45 min incubation; for LP % Inhibition at 100 μΜ: 100 μM compound. (In general: Liver microsomes are a subcellular fraction often used to study metabolism.)
Test [3] deals with soybean lipoxygenase (LOX-3). Nature of the test: Soybean lipoxygenase (LOX-3) inhibition. It is filed as biochemical. The note with it: after 5 min of incubation; sodium linoleate 100 μM, pH 9.0. As to the method: Lipoxygenase (LOX) inhibitory activity was determined using soybean lipoxygenase (250 U/mL) and sodium linoleate (100 μM) as substrate, in Tris–HCl buffer pH 9.0.

The nature of test [4]: Radical scavenging of DPPH. To be noted: DPPH 200 μM, 30 min incubation. How it is done: Compounds, dissolved in absolute methanol, at concentrations of 25–400 μM, were added to an equal volume of a methanolic solution of DPPH (final concentration 200 μM) at room temperature (22 ± 2 °C).
For orientation: The DPPH test is a chemical assay of radical scavenging.

The test system of test [5] is plasma of hyperlipidaemic mice. The test can be described thus: Total antioxidant capacity (TAC) of plasma in hyperlipidaemic mice. It is filed as in vivo. The note with it: Mus musculus, ip, 24 h, i.p. 84 μmol/kg, read-out: Total Antioxidant Capacity (TAC) Increase (%).
Test [6] is described as follows: Iron chelation (ferrozine assay). To be noted: for % of Fe(II) Chelation (at 100 μM): 100 μM compound, Fe2+ 20 μM. How it is done:
[…] The reaction was initiated with the addition of a 100 μM aqueous ferrozine solution, which chelates iron ions, resulting in an increased maximum absorbance at 562 nm. After incubation at 37 °C for 10 min, the mixture’s absorbance is measured at 562/700 nm. Each value is expressed as the mean of 3 tests per sample [46].

The next test has as its system hyperlipidaemic mice. Nature of the test: Tyloxapol (Triton WR 1339)-induced hyperlipidemia, plasma lipid parameters. It is filed as in vivo. The note with it: i.p. 84 μmol/kg; for change in vivo at 84 µmol/kg / inhibition in vivo at 84 µmol/kg: Mus musculus, ip, 24 h. As to the method: An aqueous solution of Triton WR 1339 was given i.p. to mice (400 mg/kg of body weight) and one hour later the test compounds (84 μmol/kg of body weight), dissolved in saline or saline only, were administered i.p. After 24 h, blood was taken from the aorta/heart and used for the determination of plasma total cholesterol (TC), triglyceride (TG) levels, and high-density lipoprotein (HDL) levels, using commercially available kits (Biosis Cholesterol Enzymatic/PAP, Biosis Triglycerides GPO/PAP, and Biosis HDL Phosphovolframic, Biosis, Athens Greece). Levels of plasma lipids were determined in duplicate while values presented are the mean from 8 animals (per compound). The levels of low-density lipoprotein (LDL) are calculated according to the equation: LDL (mg/dL) = 3/4 * (TC-HDL).

Test [7] deals with carrageenan-induced mouse paw edema. Nature of the test: Carrageenan-induced mouse paw edema. It is filed as in vivo, C57BL/6 mice. The note with it: ip, 3.5 h, i.p. 0.30 mmol/kg, female C57BL/6, 3.5 h after carrageenan, read-out: % Edema (decrease of carrageenan-induced paw edema vs control). As to the method: For the in vivo anti-inflammatory activity, C57BL/6 mice were injected with 0.025 mL carrageenan (2% w/v solution in saline) i.d. into the right hind paw, the left paw serving as control. The test compounds dissolved in saline (300 μmol/kg) were given i.p. right after the carrageenan injection, and 3.5 h later the produced edema was estimated as paw weight increase. Results are expressed as percentage of reduction in paw-edema and are the mean of 6 animals (per compound).

[8] abbreviates: plasma, vs tyloxapol control, read-out: % HDL Increase.
Where [9] appears, read: LDL calculated as 3/4*(TC-HDL), read-out: % LDL Decrease.
Where [10] appears, read: plasma, vs tyloxapol control, read-out: % Total Cholesterol (TC) Reduction.
Setting [11] is: plasma, vs tyloxapol control, read-out: % Triglycerides (TG) Reduction.
Where [12] appears, read: ratio calculated, read-out: % HDL/LDL Increase (antiatherogenic index).

Like-named read-outs stand apart in the source and are kept apart here.

Usually inhibition stands for the change of the read-out against control, counted positive when it falls. Usually IC50 stands for the midpoint of a concentration-inhibition curve.

T1 sequence (O42275 24-633): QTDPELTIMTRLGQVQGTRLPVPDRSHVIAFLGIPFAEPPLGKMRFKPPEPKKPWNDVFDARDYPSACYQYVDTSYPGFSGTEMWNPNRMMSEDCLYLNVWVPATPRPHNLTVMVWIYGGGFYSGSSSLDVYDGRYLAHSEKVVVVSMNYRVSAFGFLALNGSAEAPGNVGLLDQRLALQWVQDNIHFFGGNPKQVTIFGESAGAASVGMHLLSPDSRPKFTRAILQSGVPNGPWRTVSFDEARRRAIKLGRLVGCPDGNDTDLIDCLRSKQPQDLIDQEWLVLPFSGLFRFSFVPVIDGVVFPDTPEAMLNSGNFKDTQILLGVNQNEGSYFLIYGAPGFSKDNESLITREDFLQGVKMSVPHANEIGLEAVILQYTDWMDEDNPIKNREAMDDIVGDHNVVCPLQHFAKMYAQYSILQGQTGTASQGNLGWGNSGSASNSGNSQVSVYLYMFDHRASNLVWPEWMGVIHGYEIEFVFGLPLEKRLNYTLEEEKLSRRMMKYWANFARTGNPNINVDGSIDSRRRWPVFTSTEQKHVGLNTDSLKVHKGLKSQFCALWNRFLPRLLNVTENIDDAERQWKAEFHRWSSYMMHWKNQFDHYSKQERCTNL

Consider `COc1cc(C(=O)N2CC(c3ccc(-c4ccccc4)cc3)Sc3ccccc32)cc(OC)c1OC` (centres unmarked) [Compound 14, (2-([1,1′-Biphenyl]-4-yl)-2,3-dihydro-4H-benzo[b][1,4]thiazin-4-yl)(3,4,5-trimethoxyphenyl)methanone], for which the inhibition at 300 µM in test [1] was about 45%. Moreover, the IC50 is over 1000 µM in test [2], 71 µM in test [3] and over 400 µM in test [4]. Further, the change in vivo at 84 µmol/kg in test [5] amounted to 144%; with hyperlipidaemic mice (setting [8]), 13%. Besides, in test [6], the “% of Fe(II) Chelation (at 100 μM)” value was 6%. The inhibition in vivo at 84 µmol/kg with hyperlipidaemic mice (setting [9]) is 73%; in the test with hyperlipidaemic mice (setting [10]), 51%; with hyperlipidaemic mice (setting [11]), 50%. Also, the inhibition in vivo at 300 µmol/kg in test [7] is 38%.

In test [3], `CC(C)Cc1ccc(C(C)C(=O)O)cc1` (centres unmarked) [ibuprofen, reference compound] displayed an IC50 of over 300 µM.

Take `Cc1cc(C(C)(C)C)c(O)c(C(C)(C)C)c1` [BHT, butylated hydroxytoluene, reference compound]: in test [2], the “LP % Inhibition at 100 μΜ” value is 0%. The molecule further yielded an IC50 in test [4] of 31 µM. Further, the “% of Fe(II) Chelation (at 100 μM)” value in test [6] stood at 0%.

Consider `O=C1O[C@H]([C@@H](O)CO)C(O)=C1O` [ascorbic acid, reference compound], for which the IC50 in test [4] stood at 42 µM.

Regarding `CC(C)Cc1ccc(C(C)C(=O)N2CCSC(c3ccc(-c4ccccc4)cc3)C2)cc1` (centres unmarked) [Compound 7, 1-(2-([1,1′-Biphenyl]-4-yl)thiomorpholino)-2-(4-isobutylphenyl)propan-1-one], the inhibition at 300 µM in test [1] is 27%. The IC50 in test [2] was 299 µM; in test [3], 22 µM; in test [4], over 400 µM. The change in vivo at 84 µmol/kg in test [5] was determined as 0%. Besides, the “% of Fe(II) Chelation (at 100 μM)” value in test [6] was determined as 3%. Also, the inhibition in vivo at 84 µmol/kg is 27% in the test with hyperlipidaemic mice (setting [10]) and 70% in the test with hyperlipidaemic mice (setting [11]). In test [7], the inhibition in vivo at 300 µmol/kg was found to be 27%.

`COc1cc(C(=O)N2CCSC(c3ccc(-c4ccccc4)cc3)C2)cc(OC)c1OC` (centres unmarked) [Compound 4]: in test [1], the inhibition at 300 µM was 30%. Besides, the figures for the IC50 in test [2], in test [3] and in test [4] were over 500 µM, 71 µM and over 400 µM, respectively. Also, the change in vivo at 84 µmol/kg in test [5] was 87%; with hyperlipidaemic mice (setting [8]), 95%. The “% of Fe(II) Chelation (at 100 μM)” value in test [6] stood at 4%. Besides, the inhibition in vivo at 84 µmol/kg with hyperlipidaemic mice (setting [9]) is 5%; in the test with hyperlipidaemic mice (setting [10]) it was 10%; with hyperlipidaemic mice (setting [11]) it was 35%. In addition, the inhibition in vivo at 300 µmol/kg in test [7] is 44%.

`O=C(O)/C=C/c1ccccc1` [cinnamic acid, reference compound]: the IC50 in test [3] is over 300 µM.

Molecule `CC(C)(C)c1cc(/C=C/C(=O)O)cc(C(C)(C)C)c1O` [acrylic derivative, (E)-3-(3,5-ditertbutyl-4-hydroxyphenyl)acrylic acid, reference compound] gave an IC50 in test [4] of 77 µM.

Regarding `O=C(O)c1cc(O)c(O)c(O)c1` [gallic acid, reference compound], the “LP % Inhibition at 100 μΜ” value in test [2] was 73%. Besides, the IC50 in test [4] was found to be 14 µM. Moreover, in test [6], the “% of Fe(II) Chelation (at 100 μM)” value was 98%.

`Cc1c(C)c2c(c(C)c1O)CCC(C)(C(=O)N1CCSC(c3ccc(-c4ccccc4)cc3)C1)O2` (centres unmarked) [Compound 10]: the inhibition at 300 µM in test [1] was about 45%. The IC50 was determined as 4 µM in test [2], 140 µM in test [3] and 78 µM in test [4]. Moreover, the “% of Fe(II) Chelation (at 100 μM)” value in test [6] is on record as 0%. In addition, the change in vivo at 84 µmol/kg in the test on hyperlipidaemic mice (setting [8]) was 32%; in the test with hyperlipidaemic mice (setting [12]), 77%. Moreover, the results for the inhibition in vivo at 84 µmol/kg in the test with hyperlipidaemic mice (setting [9]), in the test on hyperlipidaemic mice (setting [10]) and in the test with hyperlipidaemic mice (setting [11]) were 23%, 13% and 52%, respectively. Besides, in test [7], the inhibition in vivo at 300 µmol/kg stood at 43%.

Take `CC(C)(C)c1cc(/C=C/C(=O)N2CC(c3ccc(-c4ccccc4)cc3)Sc3ccccc32)cc(C(C)(C)C)c1O` (centres unmarked) [Compound 16, (E)-1-(2-([1,1′-Biphenyl]-4-yl)-2,3-dihydro-4H-benzo[b][1,4]thiazin-4-yl)-3-(3,5-ditertbutyl-4-hydroxyphenyl)prop-2-en-1-one]: the inhibition at 300 µM in test [1] came out at 24%. Moreover, the figures for the IC50 in test [2], in test [3] and in test [4] were over 1000 µM, 58 µM and 141 µM, respectively. Moreover, in test [6], the “% of Fe(II) Chelation (at 100 μM)” value is on record as 9%. In addition, the change in vivo at 84 µmol/kg in the test on hyperlipidaemic mice (setting [8]) was 131%. Further, the inhibition in vivo at 84 µmol/kg is 66% in the test on hyperlipidaemic mice (setting [9]), 45% in the test with hyperlipidaemic mice (setting [10]) and 67% in the test with hyperlipidaemic mice (setting [11]). Besides, in test [7], the inhibition in vivo at 300 µmol/kg stood at 45%.

As for `Cc1c(C)c2c(c(C)c1O)CCC(C)(C(=O)O)O2` (centres unmarked) [Trolox, 6-hydroxy-2,5,7,8-tetramethylchroman-2-carboxylic acid, reference compound], the “LP % Inhibition at 100 μΜ” value in test [2] is given as 43%. Also, half-maximal inhibition in test [4] (IC50) was put at 33 µM. Further, the “% of Fe(II) Chelation (at 100 μM)” value in test [6] was determined as 29%.

Regarding `COc1cc(/C=C/C(=O)N2CCSC(c3ccc(-c4ccccc4)cc3)C2)ccc1O` (centres unmarked) [Compound 1, (E)-1-(2-([1,1′-Biphenyl]-4-yl)thiomorpholino)-3-(4-hydroxy-3-methoxyphenyl)prop-2-en-1-one], in test [1], the inhibition at 300 µM turned out to be 22%. Further, the IC50 was determined as 6 µM in test [2], 68 µM in test [3] and 166 µM in test [4]. Besides, in test [6], the “% of Fe(II) Chelation (at 100 μM)” value was determined as 19%. Also, in the test with hyperlipidaemic mice (setting [8]), the change in vivo at 84 µmol/kg was found to be 84%. Further, the inhibition in vivo at 84 µmol/kg with hyperlipidaemic mice (setting [9]) was 59%; in the test on hyperlipidaemic mice (setting [10]), 40%; in the test on hyperlipidaemic mice (setting [11]), 83%. Also, in test [7], the inhibition in vivo at 300 µmol/kg is at most 60%.

With `CC(C)(C)c1cc(/C=C/C(=O)N2CCSC(c3ccc(-c4ccccc4)cc3)C2)cc(C(C)(C)C)c1O` (centres unmarked) [Compound 6, (E)-1-(2-([1.1′-Biphenyl]-4-yl)thiomorpholino)-3-(3,5-ditertbutyl-4-hydroxyphenyl)prop-2-en-1-one], the inhibition at 300 µM in test [1] is about 45%. The results for the IC50 in test [2], in test [3] and in test [4] were over 500 µM, 252 µM and 288 µM, respectively. Besides, the “% of Fe(II) Chelation (at 100 μM)” value in test [6] amounted to 0%. In addition, the change in vivo at 84 µmol/kg in the test on hyperlipidaemic mice (setting [12]) is 43%. Besides, the inhibition in vivo at 84 µmol/kg with hyperlipidaemic mice (setting [9]) was 49%; in the test on hyperlipidaemic mice (setting [10]), 36%; with hyperlipidaemic mice (setting [11]) it was 65%. Also, the “% HDL, value marked footnote 2: decrease percentage” value in the test with hyperlipidaemic mice (plasma, HDL decrease, not increase) was 23 **^,2%. For the same molecule, the inhibition in vivo at 300 µmol/kg in test [7] was 33%.

With `O=C(c1cc(O)c(O)c(O)c1)N1CCSC(c2ccc(-c3ccccc3)cc2)C1` (centres unmarked) [Compound 3, (2-([1,1′-Biphenyl]-4-yl)thiomorpholino)(3,4,5-trihydroxyphenyl)methanone], the inhibition at 300 µM in test [1] is 10%. Besides, the IC50 is 8 µM in test [2], 4 µM in test [3] and 31 µM in test [4]. For the same molecule, the “% of Fe(II) Chelation at 10 μM” value in test [6] (10 μM compound) was 56%. In test [6], the “% of Fe(II) Chelation (at 100 μM)” value came out at 89%. The change in vivo at 84 µmol/kg with hyperlipidaemic mice (setting [8]) came out at 49%. Besides, the results for the inhibition in vivo at 84 µmol/kg in the test on hyperlipidaemic mice (setting [9]), in the test with hyperlipidaemic mice (setting [10]) and in the test with hyperlipidaemic mice (setting [11]) were 79%, 51% and 86%, respectively. The inhibition in vivo at 300 µmol/kg in test [7] is at most 60%.

`COc1ccc2cc([C@H](C)C(=O)O)ccc2c1` [naproxen, reference compound] showed an IC50 in test [3] of 25 µM.
